Results taken from EP1891955A1, “Use of 1,2,3-substituted indolizine derivatives, inhibitors of FGFs, for the preparation of a medicament intended for the treatment of degenerative joint diseases” (Sanofi-Aventis, priority 2006, dated 2008).
Marks after values point to notes of the source that are not given here.

System: STR/1N mice
Test: Knee joint damage in STR/1N mice developing osteoarthritis spontaneously (semi-quantitative histopathological score)
Type: in vivo
Conditions: male STR/1N mice, 6-week treatment
Protocol: The effect of an FGF-antaqonist on the degree of knee joint damage in STR/1N mice, which develop osteoarthritis spontaneously
The experiment was performed according to the regulations of the German Animal Protection Law. Fifty 9-week old male STR/1N mice (strain bred and maintained at sanofi-aventis, Dept. of Laboratory Animal Safety and Welfare, D-65926 Frankfurt/Main, Germany) were randomized to 2 experimental groups (n=25/group). The animals were housed individually in standard mouse cages (room temperature 20 - 22°C; relative humidity 55-75%; 12 hours light/dark cycle) with free access to the powdered mouse standard food (Sniff R/M-H, Soest, Germany) and tap water. To achieve sustained drug exposure, the sodium 2-amino-5-[(1-methoxy-2-methylindolizin-3-yl)carbonyl]benzoic acid monohydrate was blended with the standard food at concentrations of 300 ppm (0.3 g/kg food) and administered to one experimental group of 25 mice ad libitum. The control group of 25 mice received unsupplemented standard food. Following the 6-week treatment period the animals were sacrificed by CO2 inhalation, their left knee joints were removed and decalcified for 3 days with formic acid (decalcifier, Shandon, Frankfurt/M., Germany), fixed in formalin and embedded in paraffin. Four sequential coronal sections of the complete knee joints (7 µm, 0.1 mm apart), stained with Hematoxyline-Eosine and Saffranin-O were evaluated by a blinded observer for the degree of histopathological joint alterations by using a semi-quantitative score as described in Table 1. Table 1: Semiquantitative Histopathological Score of Osteoarthritic Joint Damage in STR/1N Mice
The osteoarthritis joint damage was assessed by a semi-quantitative histopathological score. The STR/1N mice developed moderate osteoarthritis in the medial tibial plateau of the knee joint.

COc1c(C)c(C(=O)c2ccc(N)c(C(=O)O)c2)n2ccccc12.O.[Na] [sodium 2-amino-5-[(1-methoxy-2-methylindolizin-3-yl)carbonyl]benzoic acid monohydrate]
Histopathological Score Mean (SEM) (300 ppm (0.3 g/kg food) in food ad libitum, left knee joint, maximal total joint score = 128, p = 0.0118 Mann Whitney Test vs control 34.3 (3.8)): 23.5 (3.7)* | tolerability (300 ppm in food): well tolerated | reduction of the degree of histopathological joint damage (300 ppm in food, versus non-treated control): 32%
